Laboratory results taken from patent US6103709A (priority 1998, dated 2000).

Tests used:
[1] = target: T1, human vitamin D-binding protein (hDBP) (Homo sapiens, UniProt P02774); assay: Relative Competitive Index assay, vitamin D-binding protein; settings: RCI of 1α,25(OH)2 D3 set to 100; 4° C., pH 7.4
T1 sequence (P02774 17-474): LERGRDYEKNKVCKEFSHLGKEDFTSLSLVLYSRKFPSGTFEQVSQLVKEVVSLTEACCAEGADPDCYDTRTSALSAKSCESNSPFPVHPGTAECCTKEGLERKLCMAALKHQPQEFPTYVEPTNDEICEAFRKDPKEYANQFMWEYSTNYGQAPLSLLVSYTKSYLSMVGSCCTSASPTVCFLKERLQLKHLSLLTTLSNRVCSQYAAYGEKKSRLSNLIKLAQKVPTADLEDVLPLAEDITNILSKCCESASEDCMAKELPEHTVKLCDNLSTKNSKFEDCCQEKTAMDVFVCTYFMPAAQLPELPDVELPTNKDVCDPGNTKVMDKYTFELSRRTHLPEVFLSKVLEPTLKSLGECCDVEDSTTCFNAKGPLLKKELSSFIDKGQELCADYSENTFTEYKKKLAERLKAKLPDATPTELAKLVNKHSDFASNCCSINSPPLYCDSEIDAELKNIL
From the text: The compared analogs are 14α,15α-methano-1α,25(OH)2 D3 (LO), 22(m(dimethylhydroxymethyl)phenyl)-23,24,25,26,27-pentanor-1α- OH-D3 (EV) and (22R)-1,25(OH)2 -22,23,diene-D3 (HR), all conformationally flexible genomic agonists. By definition the RCI for 1α,25(OH)2 D3 is set to 100%. The data seen in FIG. 7 represent the mean of three determinations.
Vitamin D-Binding Protein Assay Relative Competitive Index
This example describes a Relative Competitive Index Assay used for determination of analogs binding affinity to vitamin D-binding protein.
Phase separation was then obtained by the addition of 0.5 ml of cold dextran-coated charcoal.
The data was plotted as [competitor]/[[^3 H]25(OH)D3 ] vs. 1/[fraction bound]. The RCI was calculated as [slope of competitor]/[slopefor 25(OH)D3 ]×100. Results are seen in FIG. 7. Although each analog was assayed in competition with [^3 H]25(OH)D3, the data are expressed as relative to the binding of 1α,25(OH)2 D3, with its RCI set to 100.

VDRmem = assay: Rapid response (summary classification); settings: Yes/No, Tables 1 and 6
From the text: (§1) Table 6 identifies biological properties, such as genomic response, rapid response, agonist or antagonist function, binding of the analog to the vitamin binding protein (expressed as RCI), binding to the nuclear 1α,25(OH)2 D3 receptor (expressed as RCI) rapid response (expressed as % transcaltachia the rapid hormonal stimulation of intestinal calcium absorption) the classic vitamin D responses such as intestinal Ca^2+ absorption (ICA) and bone Ca^2+ mobilizing activity (BCM) determined in vivo in a vitamin D-deficient chick, and cell differentiation (expressed as % ED50), an assessment of the ability to promote the nuclear response of cell differentiation.

rapid responses (VDRmem) = assay: Antagonist function (summary classification); settings: Yes/No, Tables 1 and 6
From the text: as §1

[2] = tested on: vitamin D-deficient chick; assay: Intestinal Ca2+ absorption (ICA) in vitamin D-deficient chick; format: in vivo; settings: i.m.; for Classic Vit D Responses ICA: relative to 100 pmol 1α,25(OH)2 D3 = 100%, 12 h before assay
Method: A primary fundamental physiological property of vitamin D and particularly 1α,25(OH)2 D3 is its ability to stimulate the intestinal absorption of calcium and facilitate the availability of dietary calcium to the organism. Intestinal absorption of the calcium is measured by the intestinal calcium absorption (ICA) assay, developed in the model of vitamin-D deficient chicks. The ICA assay was used to determine the relative capability of the tested analog to stimulate intestinal Ca^2+ absorption.
(§2) Results of the testing of the analogs of the invention in vivo by the ICA and IBM assays are shown in FIG. 9 which illustrates the capability of analogs LO, EV and HR to stimulate intestinal Ca^2+ absorption (ICA) and bone Ca^2+ mobilizing activity (BCM). In this study, the analogs of 1α,25(OH) were given i.m. to vitamin D-deficient chicks 12 hours before the assay began. The activity produced by 100 pmol of 1α,25(OH)2 D3 was set to be 100% for both ICA and BCM. The dose of the analogs required to achieve a biological response for either ICA or BCM equivalent to the 100 pmol dose of 1α,25(OH)2 D3 was calculated and converted to a percentage. Results are expressed as mean +SE of groups of seven chicks. Each assay included a negative control (-D), that is no vitamin D was present, and a positive control, where vitamin D3 (+D3) was present in 3.25 nmol. […] 1α,25(OH)2 D3 and analogs LO [14α,15α-methano-1α,25(OH)2 D3 ], EV [22-(m(dimethylhydroxymethyl)phenyl)-23,24,25,26,27-pentanor-1α-OH-D3 ] and HR [(22R)-1,25(OH)2 -22,23-diene-D3 ] were administered in 0.0065, 0.065, 0.65 and 6.5 nmol as shown.
(§3) In Vivo Assays of Intestinal Calcium Absorption and Bone Calcium Mobilization
(§4) This example describes assays used for determination of analogs biological activity in intestinal calcium absorption (ICA) and bone calcium mobilization (BCM) assays.
(§5) ICA and BCM were measured in vivo in the vitamin D-deficient chick model system according to Biochem. Pharmacol., 18: 2347 (1969).
(§6) Twelve hours before assay, the chickens, which had been placed on a zero-calcium diet 48 h before assay, were injected intramuscularly with the vitamin metabolite 1α,25(OH)2 D3 or analog (1-10,000 pmoles) dissolved in 0.1 mL of ethanol/1,2-propanediol (1:1, v/v). At the time of assay, 4.0 mg of ^40 Ca^2+ +5 μCi of ^45 Ca^2+ (New England Nuclear) were placed in the duodenum of the birds lightly anesthetized with ether. After 30 min, the birds were decapitated and the blood was collected.
The radioactivity content, which is a measure of ICA, of 0.2 mL of serum was measured in a liquid scintillation counter (Beckman LS8000) to determine the amount of ^45 Ca^2+ absorbed.

[3] = tested on: vitamin D-deficient chick; assay: Bone Ca2+ mobilizing activity (BCM) in vitamin D-deficient chick; format: in vivo; settings: i.m.; for Classic Vit D Responses BCM: relative to 100 pmol 1α,25(OH)2 D3 = 100%, 12 h before assay
Method: The bone calcium mobilizing (BCM) assay is also conducted in the vitamin D-deficient chick. The BCM assay determines the relative ability of the tested analog to mobilize bone calcium. The natural hormone 1α,25(OH)2 D3 is very potent in the BCM assay. For example, when 1α,25(OH)2 D3 in inappropriate amounts are used as a drug in human patients, the patient may become hypercalcemic and eventually hypercalciuria with nephrolithiasis and renal failure may develop. The BCM assay was used to determine the relative activity of the analogs of the invention to stimulate bone Ca^2+ mobilization.
as §2, §3, §4, §5, §6
BCM activity was estimated from the increase of total serum calcium concentration, as determined by atomic absorption spectrophotometry.

VDRnuc = assay: Genomic response (summary classification); settings: Yes/No, Tables 1 and 6
From the text: as §1

[4] = target: T2, nuclear receptor for 1α,25(OH)2 D3 [VDRnuc] (Gallus gallus, UniProt O42392); assay: Relative Competitive Index (steroid competition) assay, nuclear receptor VDRnuc; format: binding, chick; parameters: key to Nuclear 1α,25-D Receptor (RCI): % relative to 1α,25(OH)2D3 binding (RCI = 100%); settings: RCI of 1α,25(OH)2 D3 = 100
T2 construct: VDRnuc receptor preparation from chick intestine mucosa; from tissue; host or cells: chick intestinal mucosa
T2 sequence (O42392 1-451): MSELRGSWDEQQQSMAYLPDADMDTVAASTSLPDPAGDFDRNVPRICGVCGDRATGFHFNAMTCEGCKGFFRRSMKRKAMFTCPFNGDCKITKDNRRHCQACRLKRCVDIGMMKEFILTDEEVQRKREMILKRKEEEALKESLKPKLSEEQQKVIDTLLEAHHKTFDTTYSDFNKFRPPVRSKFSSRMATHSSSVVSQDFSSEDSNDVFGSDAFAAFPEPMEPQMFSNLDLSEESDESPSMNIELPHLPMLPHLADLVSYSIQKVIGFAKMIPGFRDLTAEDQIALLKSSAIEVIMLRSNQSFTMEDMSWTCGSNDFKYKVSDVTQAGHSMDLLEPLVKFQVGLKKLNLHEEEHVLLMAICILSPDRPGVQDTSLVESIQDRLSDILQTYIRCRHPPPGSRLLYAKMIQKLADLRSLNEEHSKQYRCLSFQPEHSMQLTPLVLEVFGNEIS
Method: The ability of analogs to mediate genomic responses are directly determined by the ability of the analog in question to bind to the nuclear receptor for 1α,25(OH)2 D3 [VDRnuc ]. This ability is detected by the assay measuring Relative Competitive Index (RCI).
The assay is based upon the principles of a steroid competition assay. A fixed amount of [^3 H]1α,25(OH)2 D3 is mixed with increasing amounts of competitive analogs or the natural hormone, 1α,25(OH)2 D3, and incubated with a VDRnuc receptor preparation from chick intestine mucosa.
Ligand Receptor Competition Assay
This example describes a ligand receptor competitive assay used for determination of an analog's relative ability to bind to VDRnuc expressed as relative competitive index (RCI).
The relative affinity of nonradioactive 1α,25(OH)2 D3 and each analog to compete with [^3 H]1α,25(OH)2 D3 for binding to the VDRnuc of NB4 cells was carried out in vitro. The NB4 cells were collected from a fast growing stage and the cellular VDRnuc of 1α,25(OH)2 D3 were extracted from KTED buffer containing 10 mM Tris-HCl, pH 7.4, 300 mM KCl, 1 mM EDTA and 5 mM DTT. After sonication, the cell extract was further centrifuged at 500× g for 10 min. The supernatant was collected for use in a ligand-receptor binding assay.
In this assay, increasing concentrations (10^-10 to 10^-6 M) of nonradioactive 1α,25(OH)2 D3 or the tested analogs were incubated with NB4 cell extracts in the presence of a fixed saturating amount of 1 pmole of [^3 H]1α,25(OH)2 D3. The reciprocal of the percentage of maximal binding of [^3 H]1α,25(OH)2 D3 was then calculated and plotted as a function of the relative analog concentration versus [^3 H]1α,25(OH)2 D3. […] The competitive index value for each analog is then normalized to the competitive index value of the […], thereby generating the value of Relative Competitive Index (RCI) where the RCI for 1α,25(OH)2 D3 is defined as 100%.
The full description of the assay is found in Methods in Enzymology: Vitamins and Co-Enzymes, Vol. 67, 494-500 , Academic Press, NY(1980); Biochem. Biophys. Res. Commun., 91: 827-834 (1979); and Endocrinology, 139(2): 457-465 (1998).

Row | SMILES | Vit D Binding Protein (RCI) [1] | Rapid Response (VDRmem) | Antagonist (rapid responses (VDRmem)) | Classic Vit D Responses ICA [2] [%] | Classic Vit D Responses BCM [3] [%] | Genomic Response (VDRnuc) | Nuclear 1α,25-D Receptor (RCI) [4] | ICA (in words) ([2]; vitamin D-deficient chick) | BCM (in words) ([3]; vitamin D-deficient chick)
1 | C=C1CC[C@H](O)C/C1=C/C=C1\CCC[C@]2(C)[C@@H]([C@H](C)CCCC(C)(C)O)CC[C@@H]12 [25(OH)D3, 25-hydroxyvitamin D3, reference compound] | 66,700 |  |  |  |  |  |  |  | 
2 | C=C1/C(=C\C=C2/CCC[C@@]3(C)[C@@H]2CC[C@@H]3[C@H](C)CCCC(C)(C)O)C[C@@H](O)C[C@@H]1O [GE] |  | Yes | No | 0.5 | < 0.1 | Yes |  |  | 
3 | C=C1/C(=C\C=C2/CCC[C@]3(C)[C@@H]([C@H](C)CCCC(C)(C)O)CC[C@@H]23)C[C@H](O)C[C@H]1O [HH] |  | No | Yes |  |  | No |  |  | 
4 | C=C1/C(=C\C=C2/CCC[C@]3(C)[C@@H]([C@H](C)CCCC(C)(C)O)CC[C@@H]23)C[C@H](O)C[C@@H]1O [HJ] |  | Yes | No | 2.8 | 1.5 | Yes |  |  | 
5 | C=C1/C(=C\C=C2/CCC[C@]3(C)[C@@H]([C@H](C)C#Cc4cccc(C(C)(C)O)c4)CC[C@@H]23)C[C@@H](O)C[C@@H]1O [IB] |  | Yes | No |  |  | Yes | 1 |  | 
6 | C=C1/C(=C\C=C2\CCC[C@]3(C)[C@@H]([C@H](C)CCCC(C)(C)O)CC[C@@H]23)C[C@@H](O)C[C@@H]1O [JR] |  | Yes | No | 0.03 | 0.02 | Yes |  |  | 
7 | C=C1/C(=C/C=C2/CCC[C@]3(C)[C@@H]([C@H](C)CCCC(C)(C)O)CC[C@@H]23)C[C@@H](O)C[C@@H]1O [JS] |  | Yes | No | < 0.02 | < 0.02 | Yes |  |  | 
8 | C=C1CC[C@H](O)C/C1=C/C=C1\CCC[C@]2(C)[C@@H]([C@H](C)CCCC(C)C)CC[C@@H]12 [vitamin D3, 9,10-secocholesta-5,7,10(19)-trien-3β-ol, reference compound] |  |  |  |  |  |  |  | significant at P<0.01 | significant at P<0.01
